Test results published in US9682940B2, “Indazole derivatives useful as CB-1 inverse agonists” (Janssen Pharmaceutica NV, priority 2015, dated 2017).
Read-outs that look alike come from different tables or passages of the source. Values belong to the molecule of their own block, whether it stands above or below them.

Experiments:
[1] = target: Human CB2R (Cannabanoid receptor 2) (Homo sapiens (Human), UniProt P34972); assay: CB-2 in vitro cAMP (HTRF) assay in HEK-293 cells; assay type: cell-based; settings: HEK-293 cells stably transfected with human CB2R, 250 nM Forskolin, mean where tested more than once, read-out: CB-2 (HEK_cAMP) EC50
Procedure, shortened: (§1)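 HEK-293 cells stably expressing human CB1 or CB2 plated overnight, then tested in HBSS/5 mM HEPES/0.1% BSA with 0.5 mM IBMX and forskolin (1.5 μM working dilution). Intracellular cAMP quantified by competitive HTRF immunoassay (d2-cAMP, cryptate anti-cAMP) against a cAMP standard curve; compounds as 1/3 serial dilutions from 10 mM DMSO stocks.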

[2] = target: Human CB1R (Cannabanoid receptor 1) (Homo sapiens (Human), UniProt P21554); assay: CB-1 in vitro cAMP (HTRF) assay in HEK-293 cells; assay type: cell-based; settings: HEK-293 cells stably transfected with human CB1R, 250 nM Forskolin, mean where tested more than once, read-out: CB-1 (HEK_cAMP) EC50
Procedure, shortened: as §1

Mouse Fast PK/BBB [3] = assay type: in vivo, Male C57bl/6j mice; settings: male, C57bl/6j, brain, oral, Dose 30 mg/kg, read-out: BRAIN Mean Conc. (ng/mL) ± Std. Dev
Mouse Fast PK/BBB [4] = assay type: in vivo, Male C57bl/6j mice; settings: oral; for concentration at 4 hr / concentration at 1 hr: male, C57bl/6j
Procedure: Male C57bl/6j mice were ordered from Charles River at 22-25 g and housed 3 per cage. They were fed standard chow (Purina 5001).
Male C57bl/6j mice were dosed with test compounds at 20 mg/kg or 30 mg/kg. Plasma was collected via retro-orbital bleeding at 1 hr and 4 hrs after dosing. Whole brain without cerebellum was collected at 4 hrs after dosing. Wet brain weight was recorded before freezing. Brains were homogenized in saline and sent for analysis for determination of concentration of test compound.

[5] = DIO mice, 30 mg/kg daily
[6] = brain, Dose 30 mg/kg, Time 4 hr, read-out: BRAIN Mean Conc. (ng/mL) ± Std. Dev
[7] = plasma, Dose 30 mg/kg, Time 1 hr, read-out: PLASMA Mean Conc. (ng/mL) ± Std. Dev
[8] = plasma, Dose 30 mg/kg, Time 4 hr, read-out: PLASMA Mean Conc. (ng/mL) ± Std. Dev

Human CB2R (Cannabanoid receptor 2), sequence (P34972 whole entry): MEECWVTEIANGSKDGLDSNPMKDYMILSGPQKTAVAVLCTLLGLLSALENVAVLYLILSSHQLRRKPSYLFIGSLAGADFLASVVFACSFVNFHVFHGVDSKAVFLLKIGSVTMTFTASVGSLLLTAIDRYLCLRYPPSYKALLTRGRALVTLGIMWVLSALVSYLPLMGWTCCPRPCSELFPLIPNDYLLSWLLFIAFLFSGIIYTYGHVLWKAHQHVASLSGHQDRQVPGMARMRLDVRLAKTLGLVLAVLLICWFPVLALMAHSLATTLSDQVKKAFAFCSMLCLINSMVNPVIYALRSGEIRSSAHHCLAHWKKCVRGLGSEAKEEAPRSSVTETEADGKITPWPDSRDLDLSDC
Human CB1R (Cannabanoid receptor 1), sequence (P21554 whole entry): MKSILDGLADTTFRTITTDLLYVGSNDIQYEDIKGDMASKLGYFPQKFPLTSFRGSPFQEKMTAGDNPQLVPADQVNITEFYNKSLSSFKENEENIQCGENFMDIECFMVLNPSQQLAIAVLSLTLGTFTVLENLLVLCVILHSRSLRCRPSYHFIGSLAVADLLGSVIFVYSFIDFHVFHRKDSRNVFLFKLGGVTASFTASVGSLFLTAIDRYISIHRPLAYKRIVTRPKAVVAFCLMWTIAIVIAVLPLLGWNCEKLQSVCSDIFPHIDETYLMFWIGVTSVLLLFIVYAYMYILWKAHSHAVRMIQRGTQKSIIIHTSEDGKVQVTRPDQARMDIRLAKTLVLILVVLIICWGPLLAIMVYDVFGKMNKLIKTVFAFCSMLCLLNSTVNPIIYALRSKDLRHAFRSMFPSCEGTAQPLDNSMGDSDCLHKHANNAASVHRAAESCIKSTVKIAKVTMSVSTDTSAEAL

EC50 [1]: > 10000 nM
EC50 [2]: 6 nM
concentration at 1 hr (Mouse Fast PK/BBB [3]): 41.8 ± 15.7 ng/mL
concentration at 4 hr (Mouse Fast PK/BBB [4]; [6]): 31.4 ± 13.4 ng/mL
concentration at 1 hr (Mouse Fast PK/BBB [4]; [7]): 2740 ± 160 ng/mL
concentration at 4 hr (Mouse Fast PK/BBB [4]; [8]): 884 ± 584 ng/mL
SMILES: O=S(=O)(c1cccc(O)c1)N1CCC(c2c3cc(C(c4ccc(Cl)cc4)c4ccc(Cl)cc4)ccc3nn2C2CC2)CC1 [Compound 151, 3-(4-(5-(bis(4-chlorophenyl)methyl)-2-cyclopropyl-2H-indazol-3-yl)piperidin-1-ylsulfonyl)phenol]

EC50 [1]: > 10000 nM
EC50 [2]: 17 nM
concentration at 1 hr (Mouse Fast PK/BBB [3]): 29.4 ± 3.9 ng/mL
concentration at 4 hr (Mouse Fast PK/BBB [4]; [6]): 54.8 ± 14.5 ng/mL
concentration at 1 hr (Mouse Fast PK/BBB [4]; [7]): 2460 ± 427 ng/mL
concentration at 4 hr (Mouse Fast PK/BBB [4]; [8]): 2310 ± 554 ng/mL
SMILES: NC(=O)c1cc(S(=O)(=O)N2CCC(c3c4cc(C(c5ccc(Cl)cc5)c5ccc(Cl)cc5)ccc4nn3C3CC3)CC2)ccc1Cl [Compound 169, 5-(4-(5-(bis(4-chlorophenyl)methyl)-2-cyclopropyl-2H-indazol-3-yl)piperidin-1-ylsulfonyl)-2-chlorobenzamide]

SMILES: O=C(O)c1cccc(CN2CCC(c3nn(C4CC4)c4ccc(C(c5ccc(Cl)cc5)c5ccc(Cl)cc5)cc34)CC2)c1 [Compound 207]
EC50 [1]: 9700 nM
EC50 [2]: 9 nM
BRAIN Mean Conc. (ng/mL) ± Std. Dev (Mouse Fast PK/BBB [4]; Dose 30 mg/kg, Time 1 hr): 516 ± 44.2 ng/mL
PLASMA Mean Conc. (ng/mL) ± Std. Dev (Mouse Fast PK/BBB [4]; Dose 30 mg/kg, Time 1 hr): 7373 ± 867 ng/mL
BRAIN Mean Conc. (ng/mL) ± Std. Dev (Mouse Fast PK/BBB [4]; Dose 30 mg/kg, Time 4 hr): 1180 ± 115 ng/mL
PLASMA Mean Conc. (ng/mL) ± Std. Dev (Mouse Fast PK/BBB [4]; Dose 30 mg/kg, Time 4 hr): 4317 ± 856 ng/mL

EC50 [1]: 4030 nM
EC50 [2]: 2 nM
concentration at 1 hr (Mouse Fast PK/BBB [4]; [7]): 241 ± 117 ng/mL
concentration at 4 hr (Mouse Fast PK/BBB [4]; [8]): 13 ± 1.7 ng/mL
BRAIN Mean Conc. (ng/mL) ± Std. Dev (ng/mL) (Mouse Fast PK/BBB [4]; Dose 30 mg/kg, Time 1 hr): BLOQ ± NA
BRAIN Mean Conc. (ng/mL) ± Std. Dev (ng/mL) (Mouse Fast PK/BBB [4]; Dose 30 mg/kg, Time 4 hr): BLOQ ± NA
SMILES: COc1cc(S(=O)(=O)N2CCC(c3c4cc(C(c5ccc(Cl)cc5)c5ccc(Cl)cc5)ccc4nn3C3CC3)CC2)ccc1C(=O)O [Compound 157, 4-(4-(5-(bis(4-chlorophenyl)methyl)-2-cyclopropyl-2H-indazol-3-yl)piperidin-1-ylsulfonyl)-2-methoxybenzoic acid]

SMILES: O=S(=O)(N1CCC(c2n[nH]c3ccc(C(c4ccc(Cl)cc4)c4ccc(Cl)cc4)cc23)CC1)C(F)(F)F [Compound 35]
EC50 [1]: > 10000 nM
EC50 [2]: 5 nM
BRAIN Mean Conc. (ng/mL) ± Std. Dev (ng/mL) (Mouse Fast PK/BBB [4]; Dose 20 mg/kg, Time 1 hr): BLOQ ± NA
PLASMA Mean Conc. (ng/mL) ± Std. Dev (Mouse Fast PK/BBB [4]; Dose 20 mg/kg, Time 1 hr): 3613 ± 253 ng/mL
BRAIN Mean Conc. (ng/mL) ± Std. Dev (ng/mL) (Mouse Fast PK/BBB [4]; Dose 20 mg/kg, Time 4 hr): BLOQ ± NA
PLASMA Mean Conc. (ng/mL) ± Std. Dev (Mouse Fast PK/BBB [4]; Dose 20 mg/kg, Time 4 hr): 611 ± 125 ng/mL

SMILES: NC(=O)c1cccc(CN2CCC(c3nn(C4CC4)c4ccc(C(c5ccc(Cl)cc5)c5ccc(Cl)cc5)cc34)CC2)c1 [Compound 206]
EC50 [1]: > 10000 nM
EC50 [2]: 8 nM
BRAIN Mean Conc. (ng/mL) ± Std. Dev (Mouse Fast PK/BBB [4]; Dose 30 mg/kg, Time 1 hr): 21.5 ng/mL
PLASMA Mean Conc. (ng/mL) ± Std. Dev (Mouse Fast PK/BBB [4]; Dose 30 mg/kg, Time 1 hr): 333.5 ± 70.5 ng/mL
BRAIN Mean Conc. (ng/mL) ± Std. Dev (Mouse Fast PK/BBB [4]; Dose 30 mg/kg, Time 4 hr): 30.6 ± 6.5 ng/mL
PLASMA Mean Conc. (ng/mL) ± Std. Dev (Mouse Fast PK/BBB [4]; Dose 30 mg/kg, Time 4 hr): 532.8 ± 58.9 ng/mL

SMILES: O=S(=O)(N1CCC(c2n[nH]c3ccc(C(c4ccc(Cl)cc4)c4ccc(Cl)cc4)cc23)CC1)C(F)(F)F [Compound 17, 5-(bis(4-chlorophenyl)methyl)-3-(1-(trifluoromethylsulfonyl)piperidin-4-yl)-1H-indazole]
Fed Blood Glucose (Std Err) ([5]; Day 0): 174 (9) mg/dL
Mean Body Weight (in Grams (Std Err)) ([5]; Day 0): 42.3 (1.0) Grams
Mean Body Weight (in Grams (Std Err)) ([5]; Day 1): 40.2 (1.1) Grams
Mean Daily Food Intake (in Grams (Std Err)) ([5]; Day 1): 0.8 (0.3) Grams
Mean Body Weight (in Grams (Std Err)) ([5]; Day 2): 38.3 (1.0) Grams
Mean Daily Food Intake (in Grams (Std Err)) ([5]; Day 2): 0.3 (0.1) Grams
Mean Body Weight (in Grams (Std Err)) ([5]; Day 3): 37.2 (1.1) Grams
Mean Daily Food Intake (in Grams (Std Err)) ([5]; Day 3): 0.5 (0.1) Grams
Fed Blood Glucose (Std Err) ([5]; Day 4): 150 (7) mg/dL
Mean Body Weight (in Grams (Std Err)) ([5]; Day 4): 36.3 (1.0) Grams
Mean Daily Food Intake (in Grams (Std Err)) ([5]; Day 4): 0.8 (0.1) Grams
Plasma Insulin (Std Err) ([5]; day 5, 2 hours after dose): 1.24 (0.28) ng/mL
EC50 [2]: 6 nM
BRAIN Mean Conc. (ng/mL) ± Std. Dev (Mouse Fast PK/BBB [4]; Dose 20 mg/kg, Time 1 hr): 51.8 ± 16.6 ng/mL
PLASMA Mean Conc. (ng/mL) ± Std. Dev (Mouse Fast PK/BBB [4]; Dose 20 mg/kg, Time 1 hr): 4478.2 ± 1576.9 ng/mL
BRAIN Mean Conc. (ng/mL) ± Std. Dev (Mouse Fast PK/BBB [4]; Dose 20 mg/kg, Time 4 hr): 103.2 ± 10.8 ng/mL
PLASMA Mean Conc. (ng/mL) ± Std. Dev (Mouse Fast PK/BBB [4]; Dose 20 mg/kg, Time 4 hr): 3444.4 ± 1058.9 ng/mL

EC50 [1]: > 10000 nM
EC50 [2]: 16 nM
BRAIN Mean Conc. (ng/mL) ± Std. Dev (Mouse Fast PK/BBB [4]; Dose 30 mg/kg, Time 1 hr): 11.2 ± 3.95 ng/mL
PLASMA Mean Conc. (ng/mL) ± Std. Dev (Mouse Fast PK/BBB [4]; Dose 30 mg/kg, Time 1 hr): 8693 ± 499 ng/mL
BRAIN Mean Conc. (ng/mL) ± Std. Dev (Mouse Fast PK/BBB [4]; Dose 30 mg/kg, Time 4 hr): 8.31 ± 2.31 ng/mL
PLASMA Mean Conc. (ng/mL) ± Std. Dev (Mouse Fast PK/BBB [4]; Dose 30 mg/kg, Time 4 hr): 979 ± 376 ng/mL
SMILES: O=C(O)c1ccc([C@@H](c2ccc(Cl)cc2)c2ccc3[nH]nc(N4CCN(S(=O)(=O)C(F)(F)F)CC4)c3c2)cc1 [Compound 234]

EC50 [1]: > 10000 nM
EC50 [2]: 26 nM
BRAIN Mean Conc. (ng/mL) ± Std. Dev (ng/mL) (Mouse Fast PK/BBB [4]; Dose 30 mg/kg, Time 1 hr): BLOQ ± NA
PLASMA Mean Conc. (ng/mL) ± Std. Dev (Mouse Fast PK/BBB [4]; Dose 30 mg/kg, Time 1 hr): 1763 ± 474 ng/mL
BRAIN Mean Conc. (ng/mL) ± Std. Dev (ng/mL) (Mouse Fast PK/BBB [4]; Dose 30 mg/kg, Time 4 hr): BLOQ ± NA
PLASMA Mean Conc. (ng/mL) ± Std. Dev (Mouse Fast PK/BBB [4]; Dose 30 mg/kg, Time 4 hr): 196 ± 88.0 ng/mL
SMILES: O=C(O)c1ccc([C@@H](c2ccc(Cl)cc2)c2ccc3[nH]nc(C4CCN(S(=O)(=O)C(F)(F)F)CC4)c3c2)cc1 [Compound 232]

EC50 [1]: > 10000 nM
EC50 [2]: 19 nM
SMILES: O=C(O)c1ccc(-n2nc(C3CCN(S(=O)(=O)C(F)(F)F)CC3)c3cc(C(c4ccc(Cl)cc4)c4ccc(Cl)cc4)ccc32)cc1 [Compound 204]

EC50 [1]: > 2000 nM
EC50 [2]: 79 nM
SMILES: O=C(Oc1ccccc1)N1CCC(c2n[nH]c3ccc(C(c4ccc(Cl)cc4)c4ccc(Cl)cc4)cc23)CC1 [Compound 267]

EC50 [1]: > 10000 nM
EC50 [2]: 375 nM
SMILES: NC(=O)c1ccccc1S(=O)(=O)N1CCC(Nc2n[nH]c3ccc(C(c4ccc(Cl)cc4)c4ccc(Cl)cc4)cc23)CC1 [Compound 121]
